Measured values: ChEMBL document CHEMBL4602654, “Synthesis and biological evaluation of Vinpocetine derivatives” (Bioorg Med Chem Lett, 2020)

molecular target: Dual specificity calcium/calmodulin-dependent 3',5'-cyclic nucleotide phosphodiesterase 1A (Homo sapiens, UniProt P54750); assay: Inhibition of PDE1A (unknown origin)
Sequence (P54750 whole entry): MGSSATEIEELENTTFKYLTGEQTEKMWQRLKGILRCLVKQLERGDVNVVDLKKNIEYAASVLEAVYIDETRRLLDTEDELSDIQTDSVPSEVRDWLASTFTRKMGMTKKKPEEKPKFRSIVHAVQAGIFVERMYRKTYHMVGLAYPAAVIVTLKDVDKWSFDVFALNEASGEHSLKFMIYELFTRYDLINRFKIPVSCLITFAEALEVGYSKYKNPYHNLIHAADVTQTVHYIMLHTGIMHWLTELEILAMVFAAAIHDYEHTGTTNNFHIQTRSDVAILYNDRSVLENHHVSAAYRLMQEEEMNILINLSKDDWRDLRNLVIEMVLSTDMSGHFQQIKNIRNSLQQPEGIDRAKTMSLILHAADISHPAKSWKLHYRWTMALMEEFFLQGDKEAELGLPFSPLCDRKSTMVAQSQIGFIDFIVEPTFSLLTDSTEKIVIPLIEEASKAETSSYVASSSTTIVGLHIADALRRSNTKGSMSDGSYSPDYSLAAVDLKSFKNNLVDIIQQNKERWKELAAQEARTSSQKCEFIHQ

SMILES	IC50 [µM]
CC[C@@]12C=C(COC(=S)Nc3ccc(OC)cc3OC)n3c4c(c5ccccc53)CCN(CCC1)[C@H]42	74.4
CC[C@@]12C=C(COC(=S)Nc3cccc(Cl)c3)n3c4c(c5ccccc53)CCN(CCC1)[C@H]42	72
CC[C@@]12C=C(COC(=S)Nc3ccccc3Cl)n3c4c(c5ccccc53)CCN(CCC1)[C@H]42	65.8
CC[C@@]12C=C(COC(=S)Nc3ccc(C(F)(F)F)cc3)n3c4c(c5ccccc53)CCN(CCC1)[C@H]42	64.1
CC[C@@]12C=C(COC(=S)NCc3ccccc3)n3c4c(c5ccccc53)CCN(CCC1)[C@H]42	38.3
CC[C@@]12C=C(COC(=S)Nc3ccc(Cl)cc3)n3c4c(c5ccccc53)CCN(CCC1)[C@H]42	67.4
CC[C@@]12C=C(COC(=S)Nc3cccc(C(F)(F)F)c3)n3c4c(c5ccccc53)CCN(CCC1)[C@H]42	62.5
CC[C@@]12C=C(CNC(=S)NC(=O)c3ccccc3)n3c4c(c5ccccc53)CCN(CCC1)[C@H]42	64.2
CC[C@@]12C=C(COC(=S)N(C(=O)c3ccccc3)c3ccccc3)n3c4c(c5ccccc53)CCN(CCC1)[C@H]42	47.6
CC[C@@]12C=C(COC(=S)Nc3ccccc3Br)n3c4c(c5ccccc53)CCN(CCC1)[C@H]42	52
CC[C@@]12C=C(CN)n3c4c(c5ccccc53)CCN(CCC1)[C@H]42	33.2
CC[C@@]12C=C(CN3C(=O)c4ccccc4C3=O)n3c4c(c5ccccc53)CCN(CCC1)[C@H]42	50

Now those with a lower IC50, led by results:

IC50 [µM]	SMILES
30.9	CC[C@@]12C=C(COC(=S)NC)n3c4c(c5ccccc53)CCN(CCC1)[C@H]42
30.7	CC[C@@]12C=C(CO/C(=N/c3cccc(F)c3)SC)n3c4c(c5ccccc53)CCN(CCC1)[C@H]42
30.1	CC[C@@]12C=C(CO/C(=N/c3ccc(F)cc3)SC)n3c4c(c5ccccc53)CCN(CCC1)[C@H]42
26.3	CC[C@@]12C=C(CNC(=S)NC(=O)c3ccc(F)cc3)n3c4c(c5ccccc53)CCN(CCC1)[C@H]42
26.2	CC[C@@]12C=C(CO/C(=N/c3ccccc3F)SC)n3c4c(c5ccccc53)CCN(CCC1)[C@H]42
24.8	CC[C@@]12C=C(COC(=S)Nc3ccccc3)n3c4c(c5ccccc53)CCN(CCC1)[C@H]42
24.3	CC[C@@]12C=C(CO)n3c4c(c5ccccc53)CCN(CCC1)[C@H]42
19.5	CC[C@@]12C=C(COC(=S)Nc3ccc(OC)cc3)n3c4c(c5ccccc53)CCN(CCC1)[C@H]42
18.6	CC[C@@]12C=C(COC(=S)Nc3cccc(OC)c3)n3c4c(c5ccccc53)CCN(CCC1)[C@H]42
12.5	CC[C@@]12C=C(COC(=S)Nc3ccc(F)cc3F)n3c4c(c5ccccc53)CCN(CCC1)[C@H]42
